Structures are written as SMILES.

The assay concerns U87MG cells. Nature of the assay: Cellular assay, inhibition of 2-HG production in U87MG cells. Format: cell-based. Particulars: Homo sapiens, U-87 MG, 48 h. Here is the method:
Cells (HT1080 or U87MG) are grown in T125 flasks in DMEM containing 10% FBS, 1× penicillin/streptomycin and 500 ug/mL G418 (present in U87MG cells only). They are harvested by trypsin and seeded into 96 well white bottom plates at a density of 5000 cell/well in 100 ul/well in DMEM with 10% FBS. […] Cells are incubated overnight at 37° C. in 5% CO2. The next day test compounds are made up at 2× the final concentration and 100 ul are added to each cell well. The final concentration of DMSO is 0.2% and the DMSO control wells are plated in row G. The plates are then placed in the incubator for 48 hours. […] The cell plate is placed back in the incubator for another 24 hours. At 72 hours post compound addition, 10 mL/plate of Promega Cell Titer Glo reagent is thawed and mixed. The cell plate is removed from the incubator and allowed to equilibrate to room temperature. Then 100 ul of Promega Cell Titer Glo reagent is added to each well of media. The cell plate is then placed on an orbital shaker for 10 minutes and then allowed to sit at room temperature for 20 minutes. The plate is then read for luminescence with an integration time of 500 ms.

Take `N#Cc1ccnc(N2C(=O)CCC[C@H]2C(=O)N(c2cccc(F)c2)[C@H](C(=O)NC2CCC(F)(F)CC2)c2ccccc2Cl)c1` [Compound 75, (S)—N—((S)-1-(2-Chlorophenyl)-2-((4,4-difluorocyclohexyl)amino)-2-oxoethyl)-1-(4-cyano-pyridin-2-yl)-N-(3-fluorophenyl)-6-oxopiperidine-2-carboxamide]: the IC50 is < 100 nM.
The value for `O=C(NC1CCC(F)(F)CC1)[C@H](c1ccccc1Cl)N(C(=O)[C@@H]1COC(=O)N1c1ncccn1)c1cccc(F)c1` [Compound 76, (S)—N—((S)-1-(2-Chlorophenyl)-2-((4,4-difluorocyclohexyl)amino)-2-oxoethyl)-N-(3-fluoro-phenyl)-2-oxo-3-(pyrimidin-2-yl)oxazolidine-4-carboxamide] was < 100 nM; that for `N#Cc1ccnc(N2C(=O)OC[C@H]2C(=O)N(c2cccc(F)c2)[C@H](C(=O)NC2CC(F)(F)C2)c2ccccc2Cl)c1` [Compound 77, (S)—N—((S)-1-(2-Chlorophenyl)-2-(3,3-difluorocyclobutylamino)-2-oxoethyl)-3-(4-cyanopyri-din-2-yl)-N-(3-fluorophenyl)-2-oxooxazolidine-4-carboxamide] was < 100 nM; that for `CN1C[C@@H](C(=O)N(c2cccc(F)c2)C(C(=O)NC2CC(F)(F)C2)c2ccccc2Cl)N(c2cc(C#N)ccn2)C1=O` (stereo partly drawn) [Compound 79, (4S)—N-(1-(2-chlorophenyl)-2-((3,3-difluorocyclobutyl)amino)-2-oxoethyl)-3-(4-cyanopyridin-2-yl)-N-(3-fluorophenyl)-1-methyl-2-oxoimidazolidine-4-carboxamide] was < 100 nM.
The value for `N#Cc1ccnc(N2C(=O)NC[C@H]2C(=O)N(c2cccc(F)c2)[C@H](C(=O)NC2CC(F)(F)C2)c2ccccc2Cl)c1` [Compound 80, (S)—N—((S)-1-(2-chlorophenyl)-2-(3,3-difluorocyclobutylamino)-2-oxoethyl)-3-(4-cyanopyridin-2-yl)-N-(3-fluorophenyl)-2-oxoimidazolidine-4-carboxamide] was < 100 nM; that for `N#Cc1ccnc(N2C(=O)CC[C@H]2C(=O)N(c2cc(F)cc(F)c2)[C@H](C(=O)NC2CCC(F)(F)CC2)c2ccccc2Cl)c1` [Compound 81, (2S)—N-(1-(2-Chlorophenyl)-2-(4,4-difluorocyclohexylamino)-2-oxoethyl)-1-(4-cyanopyridin-2-yl)-N-(3,5-difluorophenyl)-5-oxopyrrolidine-2-carboxamide] was < 100 nM.
Take `N#Cc1ccnc(N2C(=O)CC[C@H]2C(=O)N(c2cccc(F)c2)[C@H](C(=O)NC2CC(F)(F)C2)c2ccccc2Cl)c1F` [Compound 82, (S)—N—((S)-1-(2-Chlorophenyl)-2-((3,3-difluorocyclobutyl)amino)-2-oxoethyl)-1-(4-cyano-3-fluoropyridin-2-yl)-N-(3-fluorophenyl)-5-oxopyrrolidine-2-carboxamide]: the IC50 is < 100 nM.
With `N#Cc1ccnc(N2C(=O)CC[C@H]2C(=O)N(c2cccc(F)c2)[C@H](C(=O)NC2CCC(F)(F)CC2)c2ccccc2Cl)c1F` [Compound 83, (S)—N—((S)-1-(2-Chlorophenyl)-2-((4,4-difluorocyclohexyl)amino)-2-oxoethyl)-1-(4-cyano-3-fluoropyridin-2-yl)-N-(3-fluorophenyl)-5-oxopyrrolidine-2-carboxamide], the IC50 is < 100 nM.
As to `N#Cc1ccnc(N2C(=O)CC[C@H]2C(=O)N(c2cccc(S(N)(=O)=O)c2)[C@H](C(=O)NC2CC(F)(F)C2)c2ccccc2Cl)c1` [Compound 84, (S)—N—((S)-1-(2-Chlorophenyl)-2-(3,3-difluorocyclobutylamino)-2-oxoethyl)-1-(4-cyanopyridin-2-yl)-5-oxo-N-(3-sulfamoylphenyl)pyrrolidine-2-carboxamide], the IC50 lay in the range of 100 to 500 nM.
The value for `N#Cc1ccnc(N2C(=O)CC[C@H]2C(=O)N(c2cccc(F)c2)[C@H](C(=O)NC2CCC(F)(F)CC2)c2ccccc2Cl)n1` [Compound 85, (S)—N—((S)-1-(2-Chlorophenyl)-2-((4,4-difluorocyclohexyl)amino)-2-oxoethyl)-1-(4-cyanopyrimidin-2-yl)-N-(3-fluorophenyl)-5-oxopyrrolidine-2-carboxamide] was < 100 nM; that for `N#Cc1ccnc(N2C(=O)CC[C@H]2C(=O)N(c2cc(F)cc(F)c2)[C@H](C(=O)NC2CC(F)(F)C2)c2ccccc2Cl)n1` [Compound 86, (S)—N—((S)-1-(2-Chlorophenyl)-2-((3,3-difluorocyclobutyl)amino)-2-oxoethyl)-1-(4-cyanopyrimidin-2-yl)-N-(3,5-difluorophenyl)-5-oxopyrrolidine-2-carboxamide] was < 100 nM.
The value for `N#Cc1ccnc(N2C(=O)CC[C@H]2C(=O)N(c2cc(F)cc(F)c2)[C@H](C(=O)NC2CCC(F)(F)CC2)c2ccccc2Cl)n1` [Compound 87, (S)—N—((S)-1-(2-Chlorophenyl)-2-((4,4-difluorocyclohexyl)amino)-2-oxoethyl)-1-(4-cyanopyrimidin-2-yl)-N-(3,5-difluorophenyl)-5-oxopyrrolidine-2-carboxamide] was < 100 nM; that for `N#Cc1ccnc(N2C(=O)CC[C@H]2C(=O)N(c2cc(F)cc(F)c2)[C@H](C(=O)NC2CC(F)(F)C2)c2ccccc2Cl)c1F` [Compound 88, (S)—N—((S)-1-(2-Chlorophenyl)-2-((3,3-difluorocyclobutyl)amino)-2-oxoethyl)-1-(4-cyano-3-fluoropyridin-2-yl)-N-(3,5-difluorophenyl)-5-oxopyrrolidine-2-carboxamide] was < 100 nM.
The same measure for `CC(C)(C)OC(=O)N1CC(=O)N(c2cc(C#N)ccn2)[C@H](C(=O)N(c2cccc(F)c2)[C@H](C(=O)NC2CC(F)(F)C2)c2ccccc2Cl)C1` [Compound 89, (3S)-tert-Butyl 3-((1-(2-chlorophenyl)-2-((3,3-difluorocyclobutyl)amino)-2-oxoethyl)(3-fluorophenyl)carbamoyl)-4-(4-cyanopyridin-2-yl)-5-oxopiperazine-1-carboxylate]: < 100 nM; for `N#Cc1ccnc(N2C(=O)CC[C@H]2C(=O)N(c2cncc(F)c2)C(C(=O)NC2CC(F)(F)C2)c2ccccc2Cl)c1` (stereo partly shown) [Compound 91]: < 100 nM; for `CC(=O)N1CC(=O)N(c2cc(C#N)ccn2)[C@H](C(=O)N(c2cccc(F)c2)[C@H](C(=O)NC2CC(F)(F)C2)c2ccccc2Cl)C1` [Compound 92, (S)-4-Acetyl-N—((S)-1-(2-chlorophenyl)-2-(3,3-difluorocyclobutylamino)-2-oxoethyl)-1-(4-cyanopyridin-2-yl)-N-(3-fluorophenyl)-6-oxopiperazine-2-carboxamide]: < 100 nM.
For `CC(C)(C)OC(=O)N1CC(=O)N(c2nccc(C#N)n2)[C@H](C(=O)N(c2cc(F)cc(F)c2)[C@H](C(=O)NC2CCC(F)(F)CC2)c2ccccc2Cl)C1` [Compound 93, (S)-tert-Butyl 3-(((S)-1-(2-chlorophenyl)-2-((4,4-difluorocyclohexyl)amino)-2-oxoethyl)(3,5-difluorophenyl)carbamoyl)-4-(4-cyanopyrimidin-2-yl)-5-oxopiperazine-1-carboxylate], the IC50 is < 100 nM.
The same measure for `CCOC(=O)CN1C[C@@H](C(=O)N(c2cccc(F)c2)[C@H](C(=O)NC2CC(F)(F)C2)c2ccccc2Cl)N(c2cc(C#N)ccn2)C1=O` [Compound 94, Ethyl 2-((4S)-4-((1-(2-chlorophenyl)-2-((3,3-difluorocyclobutyl)amino)-2-oxoethyl)(3-fluorophenyl)carbamoyl)-3-(4-cyanopyridin-2-yl)-2-oxoimidazolidin-1-yl)acetate]: < 100 nM; for `CS(=O)(=O)c1cccc(N(C(=O)[C@@H]2CCC(=O)N2c2cc(C#N)ccn2)C(C(=O)NC2CCC(F)(F)CC2)c2ccccc2Cl)c1` (stereo partly drawn) [Compound 95, (2S)—N-(1-(2-Chlorophenyl)-2-((4,4-difluorocyclohexyl)amino)-2-oxoethyl)-1-(4-cyanopyridin-2-yl)-N-(3-(methylsulfonyl)phenyl)-5-oxopyrrolidine-2-carboxamide]: < 100 nM.
The same measure for `CC(C)(C)OC(=O)N1CC(=O)N(c2nccc(C#N)n2)[C@H](C(=O)N(c2cc(F)cc(F)c2)[C@H](C(=O)NC2CC(F)(F)C2)c2ccccc2Cl)C1` [Compound 98, (3S)-tert-butyl 3-((1-(2-chlorophenyl)-2-((3,3-difluorocyclobutyl)amino)-2-oxoethyl)(3,5-difluorophenyl)carbamoyl)-4-(4-cyanopyrimidin-2-yl)-5-oxopiperazine-1-carboxylate]: < 100 nM.
Regarding `N#Cc1ccnc(N2C(=O)CNC[C@H]2C(=O)N(c2cc(F)cc(F)c2)[C@H](C(=O)NC2CC(F)(F)C2)c2ccccc2Cl)n1` [Compound 99, (S)—N—((S)-1-(2-chlorophenyl)-2-((3,3-difluorocyclobutyl)amino)-2-oxoethyl)-1-(4-cyanopyrimidin-2-yl)-N-(3,5-difluorophenyl)-6-oxopiperazine-2-carboxamide], the IC50 is < 100 nM.
The same measure for `N#Cc1ccnc(N2C(=O)CNC[C@H]2C(=O)N(c2cc(F)cc(F)c2)[C@H](C(=O)NC2CC(F)(F)C2)c2ccccc2Cl)c1` [Compound 100, (S)—N—((S)-1-(2-Chlorophenyl)-2-((3,3-difluorocyclobutyl)amino)-2-oxoethyl)-1-(4-cyanopyridin-2-yl)-N-(3,5-difluorophenyl)-6-oxopiperazine-2-carboxamide]: < 100 nM.

For orientation: IC50 means the concentration that gives 50% inhibition. Low readings indicate greater potency, high ones weaker potency.

Source of the values: patent publication US10689414B2 (Agios Pharmaceuticals, Inc., priority 2013, dated 2020).
